# From PubChem BioAssay AID1745844 (Carcinogenic Potency Database (CPDB), 2022)
# The source made the active and inactive calls. How the calls were made is not given here.
# System: rodent lifetime carcinogenesis bioassay, tumor incidence TD50
# Assay: carcinogenic potency in animals, long-term in vivo studies, CPDB compilation (AID 1745844)
structure (smiles),measurement,setting,value
CCc1cccc2c3c([nH]c12)C(CC)(CC(=O)O)OCC3 (centres undefined),carcinogen call,"mouse, strain Charles River CD1, females, in feed, site: any site (literature study), lesion: benign tumor, dosed 78 weeks, study length 78 weeks",negative (inactive)
same,TD50,"mouse, strain Charles River CD1, females, in feed, site: any site (literature study), lesion: malignant tumor, dosed 78 weeks, study length 78 weeks",336 mg/kg/day (inactive)
same,carcinogen call,"mouse, strain Charles River CD1, females, in feed, site: any site (literature study), lesion: several types, types named in the paper, dosed 78 weeks, study length 78 weeks",negative (inactive)
same,carcinogen call,"mouse, strain Charles River CD1, females, in feed, site: liver, lesion: hepatocellular adenoma, dosed 78 weeks, study length 78 weeks",negative (inactive)
same,carcinogen call,"mouse, strain Charles River CD1, females, in feed, site: lung, lesion: alveolar/bronchiolar carcinoma, dosed 78 weeks, study length 78 weeks",negative (inactive)
same,carcinogen call,"mouse, strain Charles River CD1, males, in feed, site: any site (literature study), lesion: benign tumor, dosed 78 weeks, study length 78 weeks",negative (inactive)
same,carcinogen call,"mouse, strain Charles River CD1, males, in feed, site: any site (literature study), lesion: malignant tumor, dosed 78 weeks, study length 78 weeks",negative (inactive)
same,carcinogen call,"mouse, strain Charles River CD1, males, in feed, site: any site (literature study), lesion: several types, types named in the paper, dosed 78 weeks, study length 78 weeks",negative (inactive)
same,carcinogen call,"mouse, strain Charles River CD1, males, in feed, site: liver, lesion: hepatocellular adenoma, dosed 78 weeks, study length 78 weeks",negative (inactive)
same,carcinogen call,"mouse, strain Charles River CD1, males, in feed, site: liver, lesion: hepatocellular carcinoma, dosed 78 weeks, study length 78 weeks",negative (inactive)
same,carcinogen call,"rat, strain Charles River CD (Sprague-Dawley), females, in feed, site: any site (literature study), lesion: benign tumor, dosed 104 weeks, study length 104 weeks",negative (inactive)
same,carcinogen call,"rat, strain Charles River CD (Sprague-Dawley), females, in feed, site: any site (literature study), lesion: malignant tumor, dosed 104 weeks, study length 104 weeks",negative (inactive)
same,carcinogen call,"rat, strain Charles River CD (Sprague-Dawley), females, in feed, site: any site (literature study), lesion: several types, types named in the paper, dosed 104 weeks, study length 104 weeks",negative (inactive)
same,carcinogen call,"rat, strain Charles River CD (Sprague-Dawley), females, in feed, site: liver, lesion: hepatocellular carcinoma, dosed 104 weeks, study length 104 weeks",negative (inactive)
same,TD50,"rat, strain Charles River CD (Sprague-Dawley), females, in feed, site: liver, lesion: neoplastic nodule, dosed 104 weeks, study length 104 weeks",1010 mg/kg/day (inactive)
same,carcinogen call,"rat, strain Charles River CD (Sprague-Dawley), males, in feed, site: any site (literature study), lesion: benign tumor, dosed 104 weeks, study length 104 weeks",negative (inactive)
same,carcinogen call,"rat, strain Charles River CD (Sprague-Dawley), males, in feed, site: any site (literature study), lesion: malignant tumor, dosed 104 weeks, study length 104 weeks",negative (inactive)
same,carcinogen call,"rat, strain Charles River CD (Sprague-Dawley), males, in feed, site: any site (literature study), lesion: several types, types named in the paper, dosed 104 weeks, study length 104 weeks",negative (inactive)
same,carcinogen call,"rat, strain Charles River CD (Sprague-Dawley), males, in feed, site: liver, lesion: hepatocellular carcinoma, dosed 104 weeks, study length 104 weeks",negative (inactive)
same,TD50,"rat, strain Charles River CD (Sprague-Dawley), males, in feed, site: liver, lesion: neoplastic nodule, dosed 104 weeks, study length 104 weeks",1400 mg/kg/day (inactive)
CN(C)CCN(Cc1ccco1)c1ccccn1,carcinogen call,"rat, strain Fischer 344, females, in drinking water, site: liver, lesion: several types, types named in the paper, dosed 94 weeks, study length 130 weeks",negative (inactive)
same,TD50,"rat, strain Fischer 344, females, in drinking water, site: thyroid follicle, lesion: several types, types named in the paper, dosed 94 weeks, study length 130 weeks",559 mg/kg/day (inactive)
same,carcinogen call,"rat, strain Fischer 344, males, in drinking water, site: liver, lesion: several types, types named in the paper, dosed 94 weeks, study length 115 weeks",negative (inactive)
O=[N+]([O-])OCC(CO[N+](=O)[O-])O[N+](=O)[O-],TD50,"rat, strain Charles River CD (Sprague-Dawley), females, in feed, site: liver, lesion: several types, types named in the paper, dosed 104 weeks, study length 104 weeks",329 mg/kg/day
same,TD50,"rat, strain Charles River CD (Sprague-Dawley), males, in feed, site: liver, lesion: several types, types named in the paper, dosed 104 weeks, study length 104 weeks",221 mg/kg/day
same,TD50,"rat, strain Charles River CD (Sprague-Dawley), males, in feed, site: testis, lesion: interstitial-cell tumor, dosed 104 weeks, study length 104 weeks",405 mg/kg/day
same,TD50,"rat, strain Fischer 344, males, in feed, site: liver, lesion: cholangiocarcinoma, dosed 70 weeks, study length 70 weeks",681 mg/kg/day
same,TD50,"rat, strain Fischer 344, males, in feed, site: liver, lesion: cholangiocarcinoma, dosed 76 weeks, study length 76 weeks",509 mg/kg/day
same,TD50,"rat, strain Fischer 344, males, in feed, site: liver, lesion: cholangioma, dosed 76 weeks, study length 76 weeks",211 mg/kg/day
same,TD50,"rat, strain Fischer 344, males, in feed, site: liver, lesion: hepatocellular adenoma, dosed 70 weeks, study length 70 weeks",179 mg/kg/day
same,TD50,"rat, strain Fischer 344, males, in feed, site: liver, lesion: hepatocellular adenoma, dosed 76 weeks, study length 76 weeks",106 mg/kg/day
same,TD50,"rat, strain Fischer 344, males, in feed, site: liver, lesion: several types, types named in the paper, dosed 70 weeks, study length 70 weeks",113 mg/kg/day
same,carcinogen call,"rat, strain Fischer 344, males, in feed, site: liver, lesion: several types, types named in the paper, dosed 76 weeks, study length 76 weeks",positive
CCOc1ccc(NC(C)=O)cc1N,TD50,"mouse, strain B6C3F1, females, in feed, site: any site (literature study), lesion: several types, types named in the paper, dosed 78 weeks, study length 93 weeks",569 mg/kg/day
same,TD50,"mouse, strain B6C3F1, females, in feed, site: lung, lesion: alveolar/bronchiolar adenoma + alveolar/bronchiolar carcinoma, dosed 78 weeks, study length 93 weeks",8630 mg/kg/day
same,TD50,"mouse, strain B6C3F1, females, in feed, site: pituitary gland, lesion: adenoma, NOS + carcinoma, NOS + chromophobe adenoma, dosed 78 weeks, study length 93 weeks",1050 mg/kg/day (inactive)
same,TD50,"mouse, strain B6C3F1, males, in feed, site: liver, lesion: hepatocellular adenoma + hepatocellular carcinoma + neoplastic nodule, dosed 78 weeks, study length 93 weeks",8990 mg/kg/day
same,TD50,"mouse, strain B6C3F1, males, in feed, site: thyroid gland, lesion: adenocarcinoma, NOS + adenoma, NOS + follicular-cell adenoma + follicular-cell carcinoma, dosed 78 weeks, study length 93 weeks",2070 mg/kg/day
same,TD50,"mouse, strain B6C3F1, males, in feed, site: thyroid gland, lesion: adenocarcinoma, NOS + follicular-cell carcinoma, dosed 78 weeks, study length 93 weeks",4020 mg/kg/day
same,TD50,"mouse, strain B6C3F1, males, in feed, site: thyroid gland, lesion: follicular-cell carcinoma, dosed 78 weeks, study length 93 weeks",3770 mg/kg/day
same,TD50,"rat, strain Fischer 344, females, in feed, site: adrenal gland, lesion: cortical adenoma + cortical carcinoma, dosed 78 weeks, study length 106 weeks",415 mg/kg/day (inactive)
same,TD50,"rat, strain Fischer 344, females, in feed, site: liver, lesion: hepatocellular adenoma + hepatocellular carcinoma + neoplastic nodule, dosed 78 weeks, study length 106 weeks",717 mg/kg/day
same,TD50,"rat, strain Fischer 344, males, in feed, site: thyroid gland, lesion: c-cell carcinoma, dosed 78 weeks, study length 106 weeks",610 mg/kg/day (inactive)
CC(Cl)(Cl)Cl,TD50,"mouse, strain B6C3F1, females, by gavage, site: lung, lesion: alveolar/bronchiolar adenoma + alveolar/bronchiolar carcinoma, dosed 78 weeks, study length 90 weeks",260000 mg/kg/day
same,carcinogen call,"mouse, strain B6C3F1, females, inhaled, site: liver, lesion: hepatocellular adenoma, dosed 104 weeks, study length 104 weeks",negative (inactive)
same,carcinogen call,"mouse, strain B6C3F1, females, inhaled, site: liver, lesion: hepatocellular carcinoma, dosed 104 weeks, study length 104 weeks",negative (inactive)
same,carcinogen call,"mouse, strain B6C3F1, females, inhaled, site: liver, lesion: several types, types named in the paper, dosed 104 weeks, study length 104 weeks",negative (inactive)
same,TD50,"mouse, strain B6C3F1, males, by gavage, site: any site (literature study), lesion: several types, types named in the paper, dosed 78 weeks, study length 90 weeks",30500 mg/kg/day
same,TD50,"mouse, strain B6C3F1, males, by gavage, site: liver, lesion: hepatocellular adenoma + hepatocellular carcinoma + neoplastic nodule, dosed 78 weeks, study length 90 weeks",39700 mg/kg/day
same,TD50,"mouse, strain B6C3F1, males, by gavage, site: lung, lesion: alveolar/bronchiolar adenoma + alveolar/bronchiolar carcinoma, dosed 78 weeks, study length 90 weeks",5.08e+06 mg/kg/day
same,carcinogen call,"mouse, strain B6C3F1, males, inhaled, site: liver, lesion: hepatocellular adenoma, dosed 104 weeks, study length 104 weeks",negative (inactive)
same,TD50,"mouse, strain B6C3F1, males, inhaled, site: liver, lesion: hepatocellular carcinoma, dosed 104 weeks, study length 104 weeks",66300 mg/kg/day (inactive)
same,carcinogen call,"mouse, strain B6C3F1, males, inhaled, site: liver, lesion: several types, types named in the paper, dosed 104 weeks, study length 104 weeks",negative (inactive)
same,carcinogen call,"rat, strain Fischer 344, females, inhaled, site: liver, lesion: hepatocellular carcinoma, dosed 104 weeks, study length 104 weeks",negative (inactive)
same,carcinogen call,"rat, strain Fischer 344, females, inhaled, site: liver, lesion: neoplastic nodule, dosed 104 weeks, study length 104 weeks",negative (inactive)
same,TD50,"rat, strain Fischer 344, males, inhaled, site: liver, lesion: hepatocellular carcinoma, dosed 104 weeks, study length 104 weeks",2070 mg/kg/day (inactive)
same,TD50,"rat, strain Fischer 344, males, inhaled, site: liver, lesion: neoplastic nodule, dosed 104 weeks, study length 104 weeks",5120 mg/kg/day (inactive)
same,TD50,"rat, strain Osborne-Mendel, females, by gavage, site: any site (literature study), lesion: several types, types named in the paper, dosed 78 weeks, study length 112 weeks",226 mg/kg/day
same,TD50,"rat, strain Osborne-Mendel, males, by gavage, site: any site (literature study), lesion: several types, types named in the paper, dosed 78 weeks, study length 106 weeks",950 mg/kg/day
